Source: PMC6009976, “Pharmacophore-based design and discovery of (−)-meptazinol carbamates as dual modulators of cholinesterase and amyloidogenesis” (Journal of Enzyme Inhibition and Medicinal Chemistry, 2017)
Where two headings read alike, the source gives them in different places. Marks after values point to notes of the source that are not given here.

Experiments:
[1] = target: T1, AChE (mice brain homogenate) (Mus musculus, UniProt P21836); settings: cited from earlier work
T1 construct: a solution of AChE (1:9 w/v homogenate in 0.1 M phosphate buffer (PB), pH 7.4); from tissue; host or cells: mouse brain homogenate
T1 sequence (P21836 32-614): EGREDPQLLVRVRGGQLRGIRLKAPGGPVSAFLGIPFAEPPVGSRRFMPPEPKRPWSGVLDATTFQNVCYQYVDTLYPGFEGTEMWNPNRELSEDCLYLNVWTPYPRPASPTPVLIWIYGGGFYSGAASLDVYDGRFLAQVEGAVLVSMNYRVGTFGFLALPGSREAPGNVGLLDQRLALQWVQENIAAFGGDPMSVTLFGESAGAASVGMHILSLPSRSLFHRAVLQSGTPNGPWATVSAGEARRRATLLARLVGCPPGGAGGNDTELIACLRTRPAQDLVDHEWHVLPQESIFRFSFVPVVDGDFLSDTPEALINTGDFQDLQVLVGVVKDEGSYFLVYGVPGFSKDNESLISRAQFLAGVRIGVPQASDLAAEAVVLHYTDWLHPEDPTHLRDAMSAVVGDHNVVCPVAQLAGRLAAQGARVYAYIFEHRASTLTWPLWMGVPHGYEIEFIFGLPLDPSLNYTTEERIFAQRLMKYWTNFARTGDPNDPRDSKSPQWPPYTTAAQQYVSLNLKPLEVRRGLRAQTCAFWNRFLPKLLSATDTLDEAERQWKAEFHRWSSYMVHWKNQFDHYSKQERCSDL

[2] = target: T1, AChE (mice brain homogenate); assay: In vitro AChE inhibition assay (Ellman's method); assay type: biochemical; settings: for Selectivity for AChE (IC50 for BChE divided by IC50 for AChE): mice serum BChE, (−)-meptazinol from values of ref 17
Procedure: (§1) Inhibitory activities of the compounds toward AChE and BChE were evaluated by Ellman’s method, employing mice brain homogenate as source of AChE and mice serum as source of BChE. […] After incubation for 20 min at 37 °C, Ellman’s reagent (300 µL, 5,5′-dithiobis(2-nitrobenzoic acid) (DTNB), 0.5 mM in 0.1 M PB, pH 7.4) and acetylthiocholine iodide (ATCh) (300 µL of 0.5 mM water solution) were added successively, and percent inhibition was determined by absorbance changes at 412 nm detected by UV spectrophotometry compared with control. BChE inhibition assay was similarly carried out using butyrylthiocholine iodide (BTCh) (0.5 mM) as the substrate and BChE (1:19 v/v serum in 0.1 M PB, pH 7.4) as the enzyme source.

[3] = target: T2, rHuAChE immobilized on EDA CIM disk (Homo sapiens, UniProt P22303); assay: Carbamoylation and decarbamoylation rate constants on AChE immobilized disk; assay type: biochemical; settings: for Kd: inhibitor 50 and 100 nM; for Carbamoylation half-time: inhibitor 50 nM
Procedure: The EDA CIM disk was first connected to a syringe pump and equilibrated with 10 column volumes (CV) of triple-distilled water and 10 CVs of 0.5 M Na-PB (pH 8.0). The flow rate was set at 0.5 mL/min. Then, the disk was activated by a 1% glutaraldehyde solution in PB (0.1 M, pH 7.4) (in the dark, 12 h, 4 °C). The activated disk was washed with 10 CVs of PB. 2 mL of rHuAChE in PB (10 U/mL) was then added into the column and left to react overnight (4 °C). The Schiff bases were reduced by 5 mL of 0.1 M sodium triacetoxyborohydride (STAB) in PB (2 h at room temperature) and 5 mL of 0.2 M monoethanolamine in PB (3 h at room temperature)[39]. The column was connected to the liquid chromatography system and equilibrated with a mobile phase consisting of 0.5 M NaCl and 10^−4 M DTNB in PB (buffer A) for 10 min. Reference enzyme activity was assessed by injecting 20 µL of saturating substrate (ATCh, 50 mM). The peak area was calculated and noted as A0. Then, the mobile phase was switched to the one containing selected concentrations of inhibitor (carbamoylation phase). Aliquots of 20 µL of saturating substrate were injected every 10–20 min and the time-dependent decreasing of peak area (Ai) was monitored down to a plateau. Once a constant plateau was reached, mobile phase was switched to buffer A again (decarbamoylation phase). Aliquots of substrate were kept injecting into the system to monitor the recovery of AChE activity over time. […] The experiment was carried out for two different concentrations of 42 and 43 (50 and 100 nM). The process of AChE carbamoylation and decarbamoylation is generally described as Scheme 1[40–42].
Calculation of ki and k3 was performed by applying Perola’s mathematical equation[43]. The affinity of the inhibitors toward the enzyme (KD) was calculated following Equation (1). (1) […]

[4] = cited from earlier work
[5] = target: T2, rHuAChE immobilized on EDA CIM disk; settings: cited from earlier work
[6] = tested on: APP in SH-SY5Y-APP695 cells; settings: 50 µM; cited from earlier work
[7] = tested on: AChE from human erythrocytes; settings: human erythrocyte AChE; read-out: IC50 ± SEM AChE; cited from earlier work
[8] = tested on: Aβ40/Aβ42 in SH-SY5Y-APP695 cells; settings: 50 µM; cited from earlier work
[9] = tested on: human serum BChE; settings: read-out: IC50 ± SEM BChE; cited from earlier work
[10] = tested on: mice brain AChE; settings: training set, read-out: Experimental IC50; cited from earlier work
[11] = tested on: Aβ40/Aβ42 in SH-SY5Y-APP695 cells; assay: Quantification of Aβ40/Aβ42 by ELISA in cell culture medium; assay type: cell-based, human; settings: for Reduction of Aβ42 level / Level of Aβ40: 50 µM; for Level of Aβ40: data not shown
Procedure: (§2) Human neuroblastoma SH-SY5Y cells transfected with wild-type APP695 gene (SH-SY5Y-APP695)[44] of 5 × 10^4/well (SH-SY5Y-APP695 kindly provided by Prof. Shengdi Chen, Ruijin Hospital, Shanghai Jiao Tong University School of Medicine) were plated in 200 µL culture medium (DMEM/F12, 10% Fetal Bovine Serum, 300 µg/mL G418, 100 U/mL penicillin + 100 µg/mL streptomycin) and incubated for 48 h at 37 °C in 5% CO2. Compounds 42 and 43 dissolved in culture medium were applied to the cells and incubated at 37 °C in 5% CO2 for 16 h. The cells were fixed and permeabilized. Mouse anti-APP monoclonal antibody N-terminus (MAB348, CHEMICON) and Goat anti-Mouse IgG conjugated to Alexa Fluor 555 were used as primary antibody and secondary antibody to detect APP while Hoechst Dye was used to stain nucleus simultaneously. KineticScan HCS System was employed to automatically find, focus, image, and analyze the cells on double-fluorescence channel guided by Target Activation Bioapplication. Fluorescence Unit of APP versus that of nucleus was used to evaluate the expression of APP, in order to balance the background.
The cell culture medium was collected and added with phenylmethylsulfonyl fluoride (PMSF) to the final concentration of 0.1%. The concentration of Aβ40/Aβ42 in the medium was measured by Human/Rat βAmyloid (40/42) ELISA Kit Wako and calculated according to the standard line.

[12] = tested on: APP in SH-SY5Y-APP695 cells; assay: Quantification of APP by high content screening; assay type: cell-based, human; settings: 16 h; for Reduction of intracellular APP level: 50 µM
Procedure: as §2

[13] = target: T3, BChE (mice serum) (Mus musculus, UniProt Q03311); assay: In vitro BChE inhibition assay (Ellman's method); assay type: biochemical; settings: read-out: IC50 ± SEM BChE
T3 construct: BChE (1:19 v/v serum in 0.1 M PB, pH 7.4) as the enzyme source; from tissue; host or cells: mouse serum
Procedure: as §1

[14] = target: rHuAChE (Homo sapiens, UniProt P22303); assay: Determination of the enzyme kinetic parameters Km and Vmax; assay type: biochemical; settings: for Type of AChE inhibition: Lineweaver–Burk plots, decreased Vmax, unvaried Km
Procedure: 10 µL inhibitors of different concentrations and 50 µL rHuAChE enzyme solution of 0.5 U/mL were mixed and incubated for 20 min, then 75 µL of DTNB solution and 100 µL of ATCh solution (concentration ranging from 0.057 mM to 0.2 mM) were added to the mixture. Enzyme activity was determined right after ATCh was added by modified Ellman’s spectrophotometrical method. The Km and Vmax values for AChE inhibition were calculated by regression analysis of Lineweaver–Burk plots (1/velocity versus 1/[substrate]).

[15] = tested on: Kunming mice; assay: in vivo; settings: mice; as doses escalate
Procedure: (§3) Acute toxicity was evaluated in mice of both sexes (20–25 g Kunming mice from experimental animal center of Shanghai Jiao Tong University School of Medicine). All animals were housed in plastic cages with food and water ad libitum and maintained on a 12/12 h light/dark cycle at 22 ± 1 °C. […] Compounds 42 and 43 were dissolved in a 1:10 propylene glycol-normal saline mixture at 0.1 mol/L and then diluted to the final stepwise concentrations with normal saline. Each concentration of the compound was orally or intraperitoneally administered to a group of 10 animals. After two weeks of observation, the lethal rate for each group was measured. A 95% confidence interval for 42 or 43 after oral or intraperitoneal administration was calculated by Bliss method.

[16] = in vivo; settings: both, Kunming, mouse, in vivo
Procedure: as §3

[17] = reference compound to verify the disk
[18] = dissociation (decarbamoylation) constant, Mean ± SD, n = 6
[19] = inhibit (carbamoylation) constant, Mean ± SD, n = 6

Chain of rHuAChE (P22303 32-614): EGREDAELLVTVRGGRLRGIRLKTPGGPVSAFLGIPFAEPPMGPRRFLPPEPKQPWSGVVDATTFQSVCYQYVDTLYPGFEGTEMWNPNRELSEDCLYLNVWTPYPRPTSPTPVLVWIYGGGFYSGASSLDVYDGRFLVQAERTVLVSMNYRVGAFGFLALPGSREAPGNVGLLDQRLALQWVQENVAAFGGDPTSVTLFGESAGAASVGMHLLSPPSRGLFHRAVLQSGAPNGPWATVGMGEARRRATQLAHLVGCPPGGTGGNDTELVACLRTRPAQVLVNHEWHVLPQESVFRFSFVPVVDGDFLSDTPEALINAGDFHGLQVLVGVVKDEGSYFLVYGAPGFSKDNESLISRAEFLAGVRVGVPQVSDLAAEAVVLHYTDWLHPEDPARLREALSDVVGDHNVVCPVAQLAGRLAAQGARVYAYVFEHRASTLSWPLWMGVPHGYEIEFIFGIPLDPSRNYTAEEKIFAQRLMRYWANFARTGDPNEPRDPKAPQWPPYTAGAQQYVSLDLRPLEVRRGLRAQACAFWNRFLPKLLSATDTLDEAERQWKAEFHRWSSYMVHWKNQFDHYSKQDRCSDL
T2 sequence (P22303 32-614): as above
T3 sequence (Q03311 30-603): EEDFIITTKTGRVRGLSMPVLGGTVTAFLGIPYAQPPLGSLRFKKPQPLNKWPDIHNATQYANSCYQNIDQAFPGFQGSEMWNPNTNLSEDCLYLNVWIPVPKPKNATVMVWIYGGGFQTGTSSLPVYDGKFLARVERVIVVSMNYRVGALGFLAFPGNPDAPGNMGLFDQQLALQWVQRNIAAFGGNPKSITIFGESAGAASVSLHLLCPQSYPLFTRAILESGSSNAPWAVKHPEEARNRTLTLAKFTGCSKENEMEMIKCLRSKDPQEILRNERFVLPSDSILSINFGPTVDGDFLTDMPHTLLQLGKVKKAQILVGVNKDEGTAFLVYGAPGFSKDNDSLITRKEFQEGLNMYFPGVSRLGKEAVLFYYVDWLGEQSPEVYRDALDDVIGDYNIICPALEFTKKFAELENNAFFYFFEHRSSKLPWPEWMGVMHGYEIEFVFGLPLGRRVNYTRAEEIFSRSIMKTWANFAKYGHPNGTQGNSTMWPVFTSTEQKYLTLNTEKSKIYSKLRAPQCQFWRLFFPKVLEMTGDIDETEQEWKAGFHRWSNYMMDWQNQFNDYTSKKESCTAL

Compound | Selectivity for AChE (IC50 for BChE divided by IC50 for AChE) ([2]; mice brain AChE) | LD50 ([4]; p.o.) | Reduction of Aβ42 level ([11]; 16 h) [%] | Level of Aβ40 [11] | Reduction of intracellular APP level [12] [%] | IC50 [13] [nM] | Type of AChE inhibition [14] | Kd ([3]; Mean ± SD, n = 6) [nM] | k3 [3, 18] | ki [3, 19] | Carbamoylation half-time [3] [min] | IC50 [2] [nM] | Fold increase in inhibition of mice brain AChE compared with (−)-meptazinol ([2]; mice brain AChE) | Peripheral cholinergic side effects observed [15] | LD50 ([16]; ip) [mg/kg] | LD50 ([16]; po) [mg/kg] | also measured
CC[C@@]1(c2cccc(O)c2)CCCCN(C)C1 [(−)-Meptazinol] | 0.37 | – | – | – | – | – | – | – | – | – | – | – | – | – | – | – | IC50 [1]: 41000 nM
CNC(=O)Oc1ccc2c(c1)[C@]1(C)CCN(C)[C@@H]1N2C [Compound 1, (3aS)-(−)-physostigmine] | – | 4.5 (p.o.)^h mg/kg | – | – | – | – | – | – | – | – | – | – | – | – | – | – | k3 [3, 17]: (1.94 ± 0.36) × 10^−2 min^−1; ki [3, 17]: (4.78 ± 1.13) × 10^5 M^−1 min^−1; Carbamoylation half-time [5]: 3.9 min
CN1CC[C@@]2(C)c3cc(OC(=O)Nc4ccccc4)ccc3N(C)[C@@H]12 [Compound 5, Phenserine] | – | – | – | – | – | – | – | – | – | – | – | – | – | – | – | – | Decrease of APP level [6]: 40%; IC50 [7]: 24 ± 6 nM; LD50 ([4]; i.p.): 25 (i.p.)^i mg/kg; Decrease of total Aβ [8]: 31%; IC50 [9]: 1300 ± 85 nM
CC[C@@]1(c2cccc(OC(=O)N(C)C)c2)CCCCN(C)C1 [Compound 42, (S)-3-(3-ethyl-1-methylazepan-3-yl)phenyl dimethylcarbamate] | 0.46 | – | 34.0 | unchanged | 23.5 | 3.17 ± 1.34 | uncompetitive inhibition | 30.2 | (1.35 ± 0.31) × 10^−2 min^−1 | (4.47 ± 1.21) × 10^5 M^−1min^−1 | 23.5 | 6.93 ± 2.45 | 5900 | salivation, twitch, and incontinence | 1.4 | 12 | Decrease of Vmax ([14]; inhibitor 100 nM): 18%; Vmax-app ([14]; inhibitor 100 nM): 28.73 µM/min; Decrease of Vmax ([14]; inhibitor 250 nM): 29%; Vmax-app ([14]; inhibitor 250 nM): 24.70 µM/min; AChE inhibitory potency relative to rivastigmine (times more potent) ([2]; mice brain AChE): about 790
CC[C@@]1(c2cccc(OC(=O)Nc3ccccc3)c2)CCCCN(C)C1 [Compound 43, (S)-3-(3-ethyl-1-methylazepan-3-yl)phenyl phenylcarbamate] | 2.1 | – | 51.9 | unchanged | 26.9 | 67.1 ± 23.7 | uncompetitive inhibition | 108 | (2.18 ± 0.12) × 10^−2 min^−1 | (2.12 ± 0.46) × 10^5 M^−1min^−1 | 20.3 | 31.6 ± 3.5 | 1300 | salivation, twitch, and incontinence | 45 | 73 | Decrease of Aβ42 level ([11]; 5 µM, 16 h): 30.5%; Decrease of APP level ([12]; 5 µM): 20.0%; Decrease of Vmax ([14]; inhibitor 25 nM): 10%; Vmax-app ([14]; inhibitor 25 nM): 17.84 µM/min; Decrease of Vmax ([14]; inhibitor 50 nM): 25%; Vmax-app ([14]; inhibitor 50 nM): 14.94 µM/min; Times less potent than phenserine in AChE inhibition ([2]; against phenserine value of ref 22): 1.3
